Results on 9 compounds are retold here after patent publication US4863941A, “Glycerol derivatives” (Hoffmann-La Roche Inc., priority 1985, dated 1989).

The test system of the assay is aggregation of the blood platelets brought about by PAF. Nature of the assay: inhibition of PAF-triggered platelet aggregation in platelet-rich plasma (PRP), aggregometer. It counts as cell-based. Particulars: Oryctolagus cuniculus, rabbit PRP, 37° C., sub-maximum dosage of PAF (4 nM), test substance added 2 minutes before PAF. On the procedure: Platelet-rich plasma (PRP) is prepared by centrifugation of rabbit blood containing 1/10 volumes of 90 mM trisodium citrate. The aggregation of the blood platelets is measured with the aid of an aggregometer at 37° C. while stirring. 2 minutes after the addition of the test sub- stance to the PRP the platelet aggregation is triggered off by a sub-maximum dosage of PAF (4 nM). The IC50 value (μM) given in the following Table corresponds to that concentration of the test substance which reduces to a half the aggregation of the blood platelets brought about by PAF.

`CCCCCCCCCCCCCCCCCCNC(=O)N(CC(COCCCC[n+]1ccsc1)OC(=O)NC)C(C)C` (racemic) [Example 7, 3-[4-[(RS)-3-(1-isopropyl-3-octadecylureido)-2-[(methylcarbamoyl)oxy]propoxy]butyl]thiazolium bromide] registered an IC50 of 0.05 µM. In other words, the double-digit nanomolar range. The result for `CCCCCCCCCCCCCCCCCCNC(=O)OCC(COC(=O)CCC[N+](C)(C)C)NC(=O)OC` (racemic) [Example 2, [3-[[(RS)-2-(1-methoxyformamido)-3-(octadecylcarbamoyloxy)propoxy]carbonyl]propyl]trimethylammonium chloride] reads 1.8 µM. In the case of `CCCCCCCCCCCCCCCCCCOC(=O)N(CC(COCCCC[N+](C)(C)C)OC(=O)NC)C(C)C` (racemic) [Example 6, [4-[(RS)-3-[N-isopropyl(1-octadecyloxy)formamido]-2-[(methylcarbamoyl)oxy]propoxy]butyl]trimethylammonium bromide], the IC50 stood at 0.5 µM. Against the preceding compound, the IC50 is about 3.6-fold lower.

As for `CCCCCCCCCCCCCCCCCC(=O)OCC(COC(=O)CCC[N+](C)(C)C)NC(C)=O` (racemic) [Example 1, [3-[[(RS)-2-acetamido-3-[octadecanoyloxy]propoxy]carbonyl]propyl]trimethylammonium chloride], the IC50 was determined as 5.5 µM. Under `CCCCCCCCCCCCCCCCCCOC(=O)NCC(COC(=O)CCC[N+](C)(C)C)OC(=O)NC` (racemic) [Example 4, [3-[[(RS)-2-Methylcarbamoyloxy-3-[1-(octadecyloxy)formamido]propoxy]carbonyl]propyl]trimethylammonium chloride] stands 1.8 µM; under `CCCCCCCCCCCCCCCCCCOC(=O)N(CC(COCCCC[n+]1ccsc1)OC(=O)NC)C(C)C` (racemic) [Example 5, 3-[4-[(RS)-3-[N-isopropyl-1-(octadecyloxy)formamido]-2-[(methylcarbamoyl)oxy]-propoxy]butyl]thiazolium bromide], 0.04 µM; under `CCCCCCCCCCCCCCCCCCNC(=O)N(CC(COCCCCn1cc[n+](C)c1)OC(=O)NC)C(C)C` (racemic) [Example 8, 1-[4-[(RS)-3-(1-isopropyl-3-octadecylureido)-2-[(methylcarbamoyl)oxy]propoxy]butyl]-3-methylimidazolium bromide], 0.4 µM. In turn, `CCCCCCCCCCCCCCCCCCOCC(COC(=O)OCC[N+]1(C)CCCCC1)OC` (racemic) [Example 3, 1-[2-[[[(RS)-2-methoxy-3-(octadecyloxy)propoxy]carbonyl]oxy]ethyl]-1-methylpiperidinium chloride] displayed an IC50 of 4 µM.

The compound `CCCCCCCCCCCCCCCCCCOC(=O)N(CC(COCCCC[n+]1ccsc1)OC(=O)OC)C(C)C` (racemic) [Example 9, 3-[4-(RS)-3-(N-isopropyl-1-octadecyloxyformamido)-2-(methoxycarbonyloxy)propoxy]butyl]thiazolium bromide] yielded an IC50 of 0.06 µM.
